# Test results published in US9803002B2, “Anti-wall teichoic antibodies and conjugates” (Genentech, Inc., priority 2013, dated 2017).
# Where two headings read alike, the source gives them in different places. The star is where a group is joined. Propanoyl(3-maleimido) = O=C1C=CC(=O)N1CCC(=O)*
# Assays:
# [1] = test system: MRSA (NRS384 strain of USA300); assay: MIC determinations for extracellular bacteria; details: Staphylococcus aureus, read-out: Extracellular MRSA MIC
# Protocol: Dilutions of the antibiotic were made in quadruplicate in 96 well culture dishes. MRSA (NRS384 strain of USA300) was taken from an exponentially growing culture and diluted to 1×10^4 CFU/mL. Bacteria was cultured in the presence of antibiotic for 18-24 hours with shaking at 37° C. and bacterial growth was determined by reading the Optical Density (OD) at 630 nM. The MIC was determined to be the dose of antibiotic that inhibited bacterial growth by >90%.
# [2] = test system: MRSA (NRS384 strain of USA300); assay: MIC determinations for intracellular bacteria inside mouse peritoneal macrophages; type: cell-based, Staphylococcus aureus; details: for MIC: Staphylococcus aureus, read-out: Intracellular MRSA MIC
# [3] = clinically achievable serum levels; cited from earlier work
# staphopain B = molecular target: T1, staphopain B (Staphylococcus aureus, UniProt P0C1S6); type: biochemical; details: for Percent cleavage pH 7.2, Staphopain B: PBS pH 7.2, 2 hours at 37° C.; for Percent cleavage pH 7.2, Staphopain B / Cleavage product, Staphopain B: LC-MS
# T1 construct: purchased Sigma-Aldrich S3951
# T1 sequence (P0C1S6 220-393): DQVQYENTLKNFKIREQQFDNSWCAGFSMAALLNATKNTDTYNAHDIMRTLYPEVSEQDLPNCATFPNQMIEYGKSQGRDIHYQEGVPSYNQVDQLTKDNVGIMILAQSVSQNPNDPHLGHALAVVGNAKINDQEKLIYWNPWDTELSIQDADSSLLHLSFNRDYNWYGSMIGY
# Protocol: Cleavage assays with purified proteases were performed by incubating 5 uM of the thioFAB conjugate with 50 nM protease in a final volume of 100 ul. Assays were either performed in PBS pH 7.2, 4 mM L-Cys, 2.5 mM EDTA or 100 mM Sodium Citrate pH 5, 100 mM NaCl, 4 mM L-Cys, 2.5 mM EDTA. Samples were incubated for 2 hours at 37° C. At 2 hours, cleavage reactions were quenched by diluting 1:1 with 1% TFA. Samples were subsequently run on LC-MS to determine percent linker cleavage. Percent cleavage was determined by integrating the A280 chromatograms of the cleaved and intact species. The antibiotic or chromophore moieties added on the C-terminus of the linkers add significant hydrophobicity, such that thioFAB with intact linkers and thioFAB with cleaved linkers are baseline resolved.
# At 2 hours, cleavage reactions were quenched by diluting 1:1 with 1% TFA. Samples were subsequently run on LC-MS to determine percent linker cleavage.
# human cathepsin B = human cathepsin B (Homo sapiens, UniProt P07858); assay: Linker cleavage assay with purified protease; type: biochemical; details: for Percent cleavage pH 7.2, Cathepsin B: PBS pH 7.2, 2 hours at 37° C.; for Percent cleavage pH 7.2, Cathepsin B / Cleavage product, Cathepsin B: LC-MS
# Protocol: The experimental mal-peptide-QSY7 linkers were conjugated to THIOFAB S4497 to evaluate the cleavability of these linkers.
# Fractions from each chromatography step were analyzed for activity, and 100 ul was used regardless of protein concentration. Samples were incubated overnight at 37° C. and subsequently analyzed by LC-MS to identify fractions where protease cleavage of the linker-antibiotic had occurred. Pooled active fractions from the Q Sepharose FF chromatography were measured to have a total protein concentration of 14 mg/ml. 200 μg of the pool was diluted to 2 mg/ml in PBS and was incubated with and without N-ethylmaleimide (NEM, Sigma) at a concentration of 0.1 mM final. Samples were incubated at room temperature for 1 hour. […] At 2 hours, samples were analyzed by LC-MS to identify whether protease cleavage of the linker-antibiotic had occurred. About 50 ul of the active fractions from SEC were incubated with 0.1 mM Alexa Fluor 488 C5 maleimide (Invitrogen) for 1 hour regardless of protein concentration for labeling. Cleavage assays with purified proteases were performed by incubating 5 uM of the thioFAB conjugate with 50 nM protease in a final volume of 100 ul. Assays were either performed in PBS pH 7.2, 4 mM L-Cys, 2.5 mM EDTA or 100 mM Sodium Citrate pH 5, 100 mM NaCl, 4 mM L-Cys, 2.5 mM EDTA. Samples were incubated for 2 hours at 37° C. At 2 hours, cleavage reactions were quenched by diluting 1:1 with 1% TFA. Samples were subsequently run on LC-MS to determine percent linker cleavage. Percent cleavage was determined by integrating the A280 chromatograms of the cleaved and intact species. The antibiotic or chromophore moieties added on the C-terminus of the linkers add significant hydrophobicity, such that thioFAB with intact linkers and thioFAB with cleaved linkers are baseline resolved.
# (§2) 5 μM of thioFAB 4497 MP-LAFGA-QSY7(“core peptide” disclosed as SEQ ID NO: 135) and thioFAB 4497 MP-LAFAA-QSY7 (“core peptide” disclosed as SEQ ID NO: 136) (FIG. 30) were incubated with 50 nM of protease in PBS pH 7.2, 4 mM L-Cys, 2.5 mM EDTA for 2 hours at 37° C. At 2 hours, cleavage reactions were quenched by diluting 1:1 with 1% TFA. Samples were subsequently run on LC-MS to determine percent linker cleavage.
# staphopain A = molecular target: T2, staphopain A (Staphylococcus aureus, UniProt P81297); type: biochemical; details: for Percent cleavage pH 7.2, Staphopain A: PBS pH 7.2, 2 hours at 37° C.; for Percent cleavage pH 7.2, Staphopain A / Cleavage product, Staphopain A: LC-MS
# T2 sequence (P81297 215-388): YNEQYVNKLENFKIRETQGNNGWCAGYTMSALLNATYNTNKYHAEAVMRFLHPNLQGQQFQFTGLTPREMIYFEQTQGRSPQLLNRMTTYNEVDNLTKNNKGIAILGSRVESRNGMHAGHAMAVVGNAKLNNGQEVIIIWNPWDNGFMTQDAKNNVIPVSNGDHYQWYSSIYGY
# Protocol: Fractions from each chromatography step were analyzed for activity, and 100 ul was used regardless of protein concentration. Samples were incubated overnight at 37° C. and subsequently analyzed by LC-MS to identify fractions where protease cleavage of the linker-antibiotic had occurred. Pooled active fractions from the Q Sepharose FF chromatography were measured to have a total protein concentration of 14 mg/ml. 200 μg of the pool was diluted to 2 mg/ml in PBS and was incubated with and without N-ethylmaleimide (NEM, Sigma) at a concentration of 0.1 mM final. Samples were incubated at room temperature for 1 hour. […] At 2 hours, samples were analyzed by LC-MS to identify whether protease cleavage of the linker-antibiotic had occurred. About 50 ul of the active fractions from SEC were incubated with 0.1 mM Alexa Fluor 488 C5 maleimide (Invitrogen) for 1 hour regardless of protein concentration for labeling. Cleavage assays with purified proteases were performed by incubating 5 uM of the thioFAB conjugate with 50 nM protease in a final volume of 100 ul. Assays were either performed in PBS pH 7.2, 4 mM L-Cys, 2.5 mM EDTA or 100 mM Sodium Citrate pH 5, 100 mM NaCl, 4 mM L-Cys, 2.5 mM EDTA. Samples were incubated for 2 hours at 37° C. At 2 hours, cleavage reactions were quenched by diluting 1:1 with 1% TFA. Samples were subsequently run on LC-MS to determine percent linker cleavage. Percent cleavage was determined by integrating the A280 chromatograms of the cleaved and intact species.
# as §2
# 5 μM of AAC-193 was incubated with 50 nM of protease in either PBS pH 7.2, 4 mM L-Cys, 2.5 mM EDTA or 100 mM Sodium Citrate pH 5, 100 mM NaCl, 4 mM L-Cys, 2.5 mM EDTA for 2 hours at 37° C. At 2 hours, cleavage reactions were quenched by diluting 1:1 with 1% TFA. Samples were subsequently run on LC-MS to determine percent linker cleavage.
# MRSA [4] = details: TSB media; vancomycin 2 and 20 μg/mL, rifampin 0.02 and 0.2 μg/mL
# MRSA (USA300) = assay: Intravenous infection model in CB17.SCID mice reconstituted with human IgG; type: in vivo, mouse
# Protocol: To confirm that the AAC would be effective in the presence of competing human antibodies in vivo, the in vivo infection model was modified to generate mice that express normal levels of human IgG in the serum. […] Four days after infection the bacterial load in the kidneys (FIG. 10C) was assessed.
# Efficacy of the AAC was compared with that of treatment with vancomycin, the current standard of care treatment for MRSA infections. […] CB17.SCID mice were reconstituted with human IgG using a dosing regimen optimized to yield constant levels of at least 10 mg/mL of human IgG in serum.
# (§1) 7 week old female mice were used for all in vivo experiments and infections were carried out by intravenous injection into the tail vein. A/J mice (Jackson Lab) were infected with a dose of 2×10^6 CFU. […] For studies examining the role of competing human IgG (SCID IVIG model), CB17.SCID mice (Charles River Laboratories, Hollister, Calif.) were reconstituted with GammaGard S/D IGIV Immune Globulin (ASD Healthcare, Brooks Ky.) using a dosing regimen optimized to achieve constant serum levels of >10 mg/mL of human IgG. IGIV was administered with an initial intravenous dose of 30 mg per mouse followed by a second dose of 15 mg/mouse by intraperitoneal injection after 6 hours, and subsequent daily dosings of 15 mg per mouse by intraperitoneal injection for 3 consecutive days. […]
# USA300 = assay: Pre-treatment in intravenous infection model in Balb/c mice; type: in vivo, mouse; details: antibodies 50 mg/Kg IV 30 minutes prior to infection; vancomycin 110 mg/Kg twice daily IP; day 4
# Protocol: Balb/c mice were given a single dose of vehicle control (PBS) or 50 mg/Kg of antibodies by intravenous injection 30 minutes prior to infection with 2×10^7 CFU of USA300. […] Control mice were given twice daily treatments with 110 mg/Kg of vancomycin by intraperitoneal injection (Vanco). All mice were sacrificed on day 4 post-infection, and the total number of surviving bacteria in kidneys (2 kidneys pooled) was determined by plating.
# as §1, with “days. Mice were infected 4 hours after the first dose of IGIV with 2×10^7 CFU of MRSA diluted in phosphate buffered saline by intravenous injection.” for “days.”
# MRSA [5] = assay: Transfer of infection from peritoneal cells to MG63 osteoblasts in the presence of vancomycin; type: cell-based, Staphylococcus aureus; details: 5 μg/mL of vancomycin
# Protocol: 6-8 week old female A/J mice (JAX™ Mice, Jackson Laboratories) were infected with 1×10^8 CFU of the NRS384 strain of USA300 by peritoneal injection. […] Peritoneal cells were then washed 2× in ice cold HB buffer. […] Free MRSA from the primary infection was stored overnight at 4° C. in Phosphate Buffered Saline Solution as a control for extracellular bacteria that were not subject to neutrophil killing.
# Osteoblasts were plated in 24 well tissue culture plates and cultured to obtain a confluent layer. On the day of the experiment, the osteoblasts were washed once in RPMI (without supplements). MRSA or infected peritoneal cells were diluted in complete RPMI-10 and vancomycin was added at 5 μg/mL immediately prior to infection. Peritoneal cells were added to the osteoblasts at 1×10^6 peritoneal cells/mL. A sample of the cells was lysed with 0.1% triton-x to determine the actual concentration of live intracellular bacteria at the time of infection.
# To generate a pool of intracellular S. aureus, A/J mice were infected with MRSA and infected peritoneal cells were taken 1 day post infection. […] The total number of surviving intracellular bacteria in each well was determined by plating cell lysates on agar plates. […]
# MRSA [6] = assay: Intravenous infection model in CB17.SCID mice; type: in vivo, mouse; details: 50 mg/Kg AAC or 0.5 mg/Kg antibiotic, kidneys 4 days after infection
# Protocol: Mice were sacrificed 4 days after infection and the total number of surviving bacteria per mouse (2 kidneys pooled) was determined by plating.
# as §1, with “days. Mice were infected 4 hours after the first dose of IGIV with 2×10^7 CFU of MRSA diluted in phosphate buffered saline by intravenous injection. Mice that received vancomycin were treated with twice daily intraperitoneal injections of 100 mg/Kg of vancomycin starting between 6 and 24 hours post infection for the duration of the study.” for “days.”
# [7] = MRSA inside mouse peritoneal macrophages, antibiotics added 1 day after infection, survival assessed 24 hours later
# [8] = 5 μM conjugate, 50 nM protease, Sodium Citrate pH 5, 2 hours at 37° C.
# [9] = listed as MP-LAFG-piperazino-rifamycin
Molecule,MIC [1] [µg/mL],"MIC [2, 7] [µg/mL]",Serum Cmax [3] [ng/mL],"Percent cleavage pH 7.2, Staphopain B (staphopain B; 5 μM conjugate, 50 nM protease) [%]","Cleavage product, Staphopain B (staphopain B)","Percent cleavage pH 7.2, Cathepsin B (human cathepsin B; 5 μM conjugate, 50 nM protease) [%]","Cleavage product, Cathepsin B (human cathepsin B)","Percent cleavage pH 7.2, Staphopain A (staphopain A; 5 μM conjugate, 50 nM protease) [%]","Cleavage product, Staphopain A (staphopain A)",other results
CCCCCCCCCC(=O)N[C@@H](Cc1c[nH]c2ccccc12)C(=O)N[C@H](CC(N)=O)C(=O)N[C@@H](CC(=O)O)C(=O)N[C@@H]1C(=O)NCC(=O)N[C@@H](CCCN)C(=O)N[C@@H](CC(=O)O)C(=O)N[C@H](C)C(=O)N[C@@H](CC(=O)O)C(=O)NCC(=O)N[C@H](CO)C(=O)N[C@@H]([C@H](C)CC(=O)O)C(=O)N[C@@H](CC(=O)c2ccccc2N)C(=O)O[C@@H]1C [Daptomycin],4,> 100,80000,–,–,–,–,–,–,–
"CO[C@H]1/C=C/O[C@@]2(C)Oc3c(C)c(O)c4c(=O)c(c5oc6cc(N7CCN(C(=O)OCc8ccc(NC(=O)CNC(=O)[C@H](Cc9ccccc9)NC(=O)[C@H](C)NC(=O)[C@H](CC(C)C)NC(=O)CCN9C(=O)C=CC9=O)cc8)CC7)cc(O)c6nc-5c4c3C2=O)NC(=O)/C(C)=C\C=C\[C@H](C)[C@H](O)[C@@H](C)[C@@H](O)[C@@H](C)[C@H](OC(C)=O)[C@@H]1C [LA-104, MP-LAFG-PABC-(piperazinoBOR)]",–,–,–,100,piperazino-,64,Phe-Gly-piperazino-rifamycin,46,piperazino-,"Percent cleavage pH 5, Staphopain B (staphopain B; [8]): 100%; Cleavage product, Staphopain B (staphopain B; [9]): free rifamycin; Percent cleavage pH 5, Cathepsin B (human cathepsin B; [8]): 100%; Percent cleavage pH 5, Staphopain A (staphopain A; [8]): 100%; Cleavage product, Staphopain A (staphopain A; [9]): free rifamycin"
CC(=O)NC[C@H]1CN(c2ccc(N3CCOCC3)c(F)c2)C(=O)O1 [Linezolid],0.3,–,10000,–,–,–,–,–,–,MIC ([2]; 24 h): > 20 µg/mL
CO[C@H]1/C=C/O[C@@]2(C)Oc3c(C)c(O)c4c(O)c(c(/C=N/N5CCN(C)CC5)c(O)c4c3C2=O)NC(=O)/C(C)=C\C=C\[C@H](C)[C@H](O)[C@@H](C)[C@@H](O)[C@@H](C)[C@H](OC(C)=O)[C@@H]1C [Rifampicin],0.004,> 20,20000,–,–,–,–,–,–,bacteria remained viable during the first two hours of antibiotic treatment (MRSA [4]): 90%; loss in viable bacteria by 5 hours (MRSA [4]): 100 fold
CN[C@H](CC(C)C)C(=O)N[C@H]1C(=O)N[C@@H](CC(N)=O)C(=O)N[C@H]2C(=O)N[C@H]3C(=O)N[C@H](C(=O)N[C@H](C(=O)O)c4cc(O)cc(O)c4-c4cc3ccc4O)[C@H](O)c3ccc(c(Cl)c3)Oc3cc2cc(c3O[C@@H]2O[C@H](CO)[C@@H](O)[C@H](O)[C@H]2O[C@H]2C[C@](C)(N)[C@H](O)[C@H](C)O2)Oc2ccc(cc2Cl)[C@H]1O [Vancomycin],1,> 100,10000 to 40000,–,–,–,–,–,–,"efficacy in kidneys (FIG. 11A) (MRSA (USA300); AAC single dose 50 mg/Kg day 1, vancomycin 100 mg/Kg twice daily, day 4): failed to clear the infection; reduction of bacterial loads (MRSA (USA300); twice-daily 100 mg/Kg, treatment initiated more than 1 day post infection): about 50 fold; effect of pre-treatment on bacterial loads in kidneys (USA300): cleared the infection in all of the mice tested; intracellular bacteria in MG63 wells 1 day post infection (MRSA [5]; similar dose of free (extracellular) MRSA): 375 intracellular bacteria; intracellular bacteria in MG63 wells 1 day after infection (MRSA [5]; wells infected with 3×10^4 intracellular bacteria (peritoneal cells)): 8,750 intracellular bacteria; bacteria remained viable during the first two hours of antibiotic treatment (MRSA [4]): 90%; loss in viable bacteria by 5 hours (MRSA [4]): 100 fold"
"MP-LAFAA-QSY7: maleimido-propionic-Leu-Ala-Phe-Ala-Ala linker with QSY7 as antibiotic surrogate, tested conjugated to thioFAB S4497 ({Propanoyl(3-maleimido)}-LAFAA-QSY7; also: conjugated to thioFAB S4497)",–,–,–,100,A-QSY7,100,"A-QSY7, and QSY7",23,A-QSY7,–
"MP-LAFGA-QSY7: maleimido-propionic-Leu-Ala-Phe-Gly-Ala linker with QSY7 as antibiotic surrogate, tested conjugated to thioFAB S4497 ({Propanoyl(3-maleimido)}-LAFGA-QSY7; also: conjugated to thioFAB S4497)",–,–,–,100,A-QSY7,100,A-QSY7,38,A-QSY7,–
dimethylpiperidyl benzoxazino rifamycin [dimethyl-pipBOR],–,–,–,–,–,–,–,–,–,killing intracellular MRSA when tested as free antibiotics [2]: more potent than rifampicin; efficacy when given 1 day post infection (MRSA [6]): failed to clear the infection
piperidyl benzoxazino rifamycin [pipBOR],–,–,–,–,–,–,–,–,–,killing intracellular MRSA when tested as free antibiotics [2]: more potent than rifampicin
